Patent publication US20260315431A1, “NANOMATERIAL ENCAPSULATED BIOFILM INHIBITORS FOR DENTAL CARIES TREATMENT” (THE UAB RESEARCH FOUNDATION, priority 2023, published 2026)

Assay: HA5 loading into (PMAA)5 hydrogel (UV-visible spectroscopy)
Type: physicochemical
Conditions: (PMAA)5 hydrogel cubes soaked in 5 mg/mL HA5 in methanol, 48 h
Description: Encapsulation of HA5 inside (PMAA)5 hydrogels microparticles. Compound HA5 was encapsulated in the (PMAA)5 hydrogel cubes through post-loading by soaking the hydrogels in 5 mg/mL solution of HA5 in methanol for 48 h in the dark (FIGS. 1.7A-B). The free, non-encapsulated HA5 was removed from particle solution by rinsing with HEPES buffer (pH=7.4) five times using centrifugation at 5000 rpm for 10 min. The HA5 quantification was carried out with UV-visible spectroscopy (NanoDrop One C, ThermoFisher) at λ=448 nm using an HA5 calibration curve. The drug solution was analyzed before and after the exposure to the hydrogel particles and the differences in the absorbance spectra were used to determine the loading of the drug into the hydrogel network. […] Freshly extracted, intact third molars with flat surfaces obtained from Dr. Nathaniel Lawson's lab (UAB School of Dentistry, IRB-300001291) were used in these studies. The AFM silicon probes NSG30 (NT-MDT, resonance frequency 240-440 kHz, force constant 22-100 N m^−1, tip radii is 10 nm, scan rate is 0.5 Hz) were used for imaging the tooth surfaces in tapping mode before and after hydrogel adhesion. […] The height of the dried hydrogel cubes was determined using section profiles, which indicated an average particle height of 1.3±0.2 μm. […]

## O=C1/C(=C/c2cc(O)c(O)cc2O)Oc2ccccc21 [HA5, 2-[(2′,4′,5′-Trihydroxyphenyl)methylidene]-2,3-dihydro-1-benzofuran-3-one]
  loading capacity: 5.5×10^−3 ng of HA5 per particle
